Source: US4002674A (priority 1974, dated 1977)
Where a name gives a salt, the structure may show the parent alone.

Columns and labels:
[1] = system: Newcastle disease virus (NDV); test: microbe, parasite or virus in culture; assay type: cell-based, Newcastle disease virus; chick embryo tissue culture; conditions: for inhibition at 4 µg/mL / inhibition at 8 µg/mL / inhibition at 16 µg/mL: avian paramyxovirus 1, in Gallus gallus, 48 h, read-out: % Inhibition of NDV Multiplications
[2] = antiviral activity in vivo; conditions: no test details given

NC12CC3CC(CC(C3)C1)C2 [Amantadine . HCl, amantadine hydrochloride, reference compound]
inhibition at 4 µg/mL [1]: 0% | inhibition at 8 µg/mL [1]: 0% | inhibition at 16 µg/mL [1]: 0%

COC(=O)C12CCCC3CC(CCC31)C2 (stereo not drawn) [VI, Methyl 4-homoisotwistane-3-carboxylate]
antiviral activity in vivo [2]: potent antiviral activity in vivo | inhibition at 4 µg/mL [1]: 0% | inhibition at 8 µg/mL [1]: 91.2% | inhibition at 16 µg/mL [1]: 99.4% | antiviral activity compared with amantadine hydrochloride ([1]; in vitro, NDV, versus amantadine hydrochloride): extremely superior | virus replication in the tissue culture ([1]; tissue culture containing above 4 μg/ml): almost completely inhibited
